The values that follow come from PubChem BioAssay AID248 (DTP/NCI, 2004).

Where “and” joins values, the source holds several entries; their conditions need not be identical. Equal values may be shown once. Inconclusive results and toxic doses are left out.

This assay deals with L1210 leukemia ip in BDF1 mice, survival T/C. Briefly: NCI In Vivo Anticancer Drug Screen. Data for tumor model L1210 Leukemia (intraperitoneal) in B6D2F1 (BDF1) mice. Conditions: endpoint: mean survival time, higher = longer survival. The gist of the method:
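Survival endpoint. Drug-treated group vs vehicle group, expressed as T divided by C. Tumor passaged by transplantation.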

[1] abbreviates: dose: 100.0 mg/kg/injection, schedule: Q04DX003 (ip), vehicle: Klucel (hydroxypropylcellulose) (HPC).
Setting [2] is: dose: 200.0 mg/kg/injection, schedule: Q04DX003 (ip), vehicle: Klucel (hydroxypropylcellulose) (HPC).
The mark [3] stands for this setting: dose: 100.0 mg/kg/injection, schedule: Q04DX003 (ip), vehicle: saline with Tween-80.

In the case of `O=C(CCCCC(=O)Nc1ccc(C2=NCCN2)cc1)Nc1ccc(C2=NCCN2)cc1`, the T/C is, setting by setting: (dose: 11.0 mg/kg/injection, schedule: Q01DX009 (ip), vehicle: saline) 123 % of control; (dose: 75.0 mg/kg/injection, schedule: Q04DX003 (ip), vehicle: saline) 123 % of control; (dose: 90.0 mg/kg/injection, schedule: Q01DX009 (ip), vehicle: saline) 256 % of control; (dose: 150.0 mg/kg/injection, schedule: Q04DX003 (ip), vehicle: saline) 123 % of control; (dose: 175.0 mg/kg/injection, schedule: Q01DX001 (ip), vehicle: saline) 108 % of control; (dose: 175.0 mg/kg/injection, schedule: Q01DX009 (ip), vehicle: saline) 212 % of control. Also, the T/C (dose: 265.0 mg/kg/injection, schedule: Q01DX009 (ip), vehicle: saline) was 214 % of control; the T/C (dose: 266.0 mg/kg/injection, schedule: Q01DX001 (ip), vehicle: saline) is 156 % of control; the T/C (dose: 300.0 mg/kg/injection, schedule: Q04DX003 (ip), vehicle: saline) is 154 % of control; the T/C (dose: 400.0 mg/kg/injection, schedule: Q01DX001 (ip), vehicle: saline) was 186 % of control; the T/C (dose: 500.0 mg/kg/injection, schedule: Q01DX001 (ip), vehicle: carboxymethylcellulose (CMC)) is 179 % of control; the T/C (dose: 600.0 mg/kg/injection, schedule: Q01DX001 (ip), vehicle: saline) is 214 % of control. The T/C is, setting by setting: (dose: 600.0 mg/kg/injection, schedule: Q04DX003 (ip), vehicle: saline) 197 % of control; (dose: 1000.0 mg/kg/injection, schedule: Q01DX001 (ip), vehicle: carboxymethylcellulose (CMC)) 273 % of control.
With `C=CCNC(=O)NCCSC(=O)SCCCC`, the T/C by setting is: (dose: 100.0 mg/kg/injection, schedule: Q01DX001 (ip), vehicle: Klucel (hydroxypropylcellulose) (HPC)) 103 % of control; (dose: 200.0 mg/kg/injection, schedule: Q01DX001 (ip), vehicle: Klucel (hydroxypropylcellulose) (HPC)) 100 % of control; (dose: 400.0 mg/kg/injection, schedule: Q01DX001 (ip), vehicle: Klucel (hydroxypropylcellulose) (HPC)) 100 % of control.
As for `CC(=O)OCCN1CCN(CC/C=C2\c3ccccc3Sc3ccc(Cl)cc32)CC1`, the T/C is 100 % of control (dose: 2.0 mg/kg/injection, schedule: Q01DX009 (ip), vehicle: saline); 98 % of control and 115 % of control (dose: 5.0 mg/kg/injection, schedule: Q01DX009 (ip), vehicle: saline); 102 % of control (dose: 10.0 mg/kg/injection, schedule: Q01DX009 (ip), vehicle: saline); 111 % of control (dose: 20.0 mg/kg/injection, schedule: Q01DX009 (ip), vehicle: saline); 120 % of control (dose: 25.0 mg/kg/injection, schedule: Q04DX003 (ip), vehicle: saline); 117 % of control (dose: 40.0 mg/kg/injection, schedule: Q01DX009 (ip), vehicle: saline). Besides, the T/C runs as follows: (dose: 100.0 mg/kg/injection, schedule: Q01DX001 (ip), vehicle: saline) 108 % of control; (dose: 200.0 mg/kg/injection, schedule: Q01DX001 (ip), vehicle: saline) 114 % of control.
`O=C(Nc1ccc(C2=NCCCN2)cc1)Nc1cccc(C(=O)Nc2ccc(C3=NCCCN3)cc2)c1`: the T/C (dose: 1.25 mg/kg/injection, schedule: Q01DX Z (ip), vehicle: carboxymethylcellulose (CMC)) is 101 % of control; the T/C (dose: 2.5 mg/kg/injection, schedule: Q01DX Z (ip), vehicle: carboxymethylcellulose (CMC)) is 106 % of control; the T/C (dose: 5.0 mg/kg/injection, schedule: Q01DX Z (ip), vehicle: carboxymethylcellulose (CMC)) is 109 % of control; the T/C (dose: 7.5 mg/kg/injection, schedule: Q01DX Z (ip), vehicle: carboxymethylcellulose (CMC)) is 112 % of control; the T/C (dose: 10.0 mg/kg/injection, schedule: Q01DX Z (ip), vehicle: carboxymethylcellulose (CMC)) is 162 % of control; the T/C (dose: 15.0 mg/kg/injection, schedule: Q01DX Z (ip), vehicle: carboxymethylcellulose (CMC)) is 171 % of control. Further, the T/C (dose: 20.0 mg/kg/injection, schedule: Q01DX Z (ip), vehicle: carboxymethylcellulose (CMC)) is 190 % of control; the T/C (dose: 30.0 mg/kg/injection, schedule: Q01DX Z (ip), vehicle: carboxymethylcellulose (CMC)) was 118 % of control; the T/C (dose: 40.0 mg/kg/injection, schedule: Q01DX Z (ip), vehicle: carboxymethylcellulose (CMC)) was 86 % of control; the T/C (dose: 62.0 mg/kg/injection, schedule: Q01DX Z (oral), vehicle: carboxymethylcellulose (CMC)) was 102 % of control; the T/C (dose: 125.0 mg/kg/injection, schedule: Q01DX Z (oral), vehicle: carboxymethylcellulose (CMC)) is 105 % of control; the T/C (dose: 250.0 mg/kg/injection, schedule: Q01DX Z (oral), vehicle: carboxymethylcellulose (CMC)) was 102 % of control. Also, the T/C (dose: 500.0 mg/kg/injection, schedule: Q01DX Z (oral), vehicle: carboxymethylcellulose (CMC)) is 107 % of control.
Regarding `O=C1C=Cc2cccc3cccc1c23`, the T/C under setting [1] was 98 % of control and the T/C under setting [2] is 112 % of control.
`C/C=C/C(=O)Nc1cccc(OC(=O)NCC)c1`: the T/C under setting [3] is 95 % of control; the T/C (dose: 200.0 mg/kg/injection, schedule: Q04DX003 (ip), vehicle: saline with Tween-80) was 93 % of control; the T/C (dose: 400.0 mg/kg/injection, schedule: Q04DX003 (ip), vehicle: saline with Tween-80) is 98 % of control.
As for `O=[N+]([O-])c1ccc(Oc2ccc(S(=O)(=O)F)cc2)cc1`, the T/C runs as follows: (dose: 100.0 mg/kg/injection, schedule: Q01DX009 (ip), vehicle: Klucel (hydroxypropylcellulose) (HPC)) 106 % of control; (dose: 200.0 mg/kg/injection, schedule: Q01DX009 (ip), vehicle: Klucel (hydroxypropylcellulose) (HPC)) 97 % of control; (dose: 400.0 mg/kg/injection, schedule: Q01DX009 (ip), vehicle: Klucel (hydroxypropylcellulose) (HPC)) 98 % of control.
As for `CC(=O)OC1CC2C(=O)CC1(C)C2(C)C` (stereo not drawn), the T/C (dose: 75.0 mg/kg/injection, schedule: Q01DX001 (ip), vehicle: saline) was 102 % of control.
Take `CC(C)P(=O)(CCP(=O)(c1ccccc1)c1ccccc1)c1ccccc1` (stereo not drawn): the T/C is 106 % of control (dose: 50.0 mg/kg/injection, schedule: Q04DX002 (ip), vehicle: saline with Tween-80); 100 % of control (dose: 100.0 mg/kg/injection, schedule: Q04DX002 (ip), vehicle: saline with Tween-80); 87 % of control (dose: 200.0 mg/kg/injection, schedule: Q04DX002 (ip), vehicle: saline with Tween-80).
On to `CC(=O)OCc1c(COC(C)=O)c(-c2ccc(Cl)cc2)n2c1CCC2`, for which the T/C is 95 % of control (dose: 12.5 mg/kg/injection, schedule: Q01DX009 (ip), vehicle: Klucel (hydroxypropylcellulose) (HPC)); 102 % of control (dose: 25.0 mg/kg/injection, schedule: Q01DX009 (ip), vehicle: Klucel (hydroxypropylcellulose) (HPC)); 117 % of control (dose: 50.0 mg/kg/injection, schedule: Q01DX009 (ip), vehicle: Klucel (hydroxypropylcellulose) (HPC)).
On to `COc1ccc(N=Cc2ccc(Cl)cc2)cc1C(F)(F)F`, for which the T/C by setting is: under setting [1], 98 % of control; under setting [2], 89 % of control; (dose: 400.0 mg/kg/injection, schedule: Q04DX003 (ip), vehicle: Klucel (hydroxypropylcellulose) (HPC)) 104 % of control.
With `Nc1nc(N)c2c(n1)CCCC2`, the T/C (dose: 12.5 mg/kg/injection, schedule: Q04DX003 (ip), vehicle: saline with Tween-80) is 95 % of control; the T/C (dose: 25.0 mg/kg/injection, schedule: Q04DX003 (ip), vehicle: saline with Tween-80) is 93 % of control; the T/C (dose: 50.0 mg/kg/injection, schedule: Q04DX003 (ip), vehicle: saline with Tween-80) is 91 % of control.
As to `N/C(=N\O)c1nn(C2OC(CO)C(O)C2O)c2ncnc(N)c12` (stereo not drawn), the T/C (dose: 25.0 mg/kg/injection, schedule: Q01DX005 (ip), vehicle: saline) was 171 % of control.
Take `C[N+](C)(CC(=O)Nc1ccc(Cl)c(Cl)c1)CC(=O)c1ccc(Cl)cc1`: the T/C reads like this: (dose: 6.25 mg/kg/injection, schedule: Q01DX009 (ip), vehicle: saline) 96 % of control; (dose: 12.5 mg/kg/injection, schedule: Q01DX009 (ip), vehicle: saline) 96 % of control; (dose: 25.0 mg/kg/injection, schedule: Q01DX009 (ip), vehicle: saline) 89 % of control; under setting [3], 92 % of control.
With `O=C(O)c1ccccc1NC(=O)C(F)(F)F`, the T/C by setting is: (dose: 25.0 mg/kg/injection, schedule: Q01DX009 (ip), vehicle: saline sonified) 98 % of control; (dose: 50.0 mg/kg/injection, schedule: Q01DX009 (ip), vehicle: saline sonified) 96 % of control; (dose: 100.0 mg/kg/injection, schedule: Q01DX009 (ip), vehicle: saline sonified) 93 % of control; under setting [1], 101 % of control.
